Reference: BigSolDB 2.1

c1ccc2[nH]c(-c3cscn3)nc2c1
solubility (mole fraction) (in 2-butanone, 283.15 K): 0.0012 | solubility (mole fraction) (in 2-butanone, 288.15 K): 0.00137 | solubility (mole fraction) (in 2-butanone, 293.15 K): 0.00151 | solubility (mole fraction) (in 2-butanone, 298.15 K): 0.00161 | solubility (mole fraction) (in 2-butanone, 303.15 K): 0.00186 | solubility (mole fraction) (in 2-butanone, 308.15 K): 0.00209 | solubility (mole fraction) (in 2-butanone, 313.15 K): 0.00223 | solubility (mole fraction) (in 2-butanone, 318.15 K): 0.00241 | solubility (mole fraction) (in 2-butanone, 323.15 K): 0.0025 | solubility (mole fraction) (in acetone, 283.15 K): 0.000605 | solubility (mole fraction) (in acetone, 288.15 K): 0.000711 | solubility (mole fraction) (in acetone, 293.15 K): 0.000796 | solubility (mole fraction) (in acetone, 298.15 K): 0.000936 | solubility (mole fraction) (in acetone, 303.15 K): 0.00105 | solubility (mole fraction) (in acetone, 308.15 K): 0.00119 | solubility (mole fraction) (in acetone, 313.15 K): 0.00139 | solubility (mole fraction) (in acetone, 318.15 K): 0.00153 | solubility (mole fraction) (in acetone, 323.15 K): 0.00173 | solubility (mole fraction) (in acetonitrile, 283.15 K): 0.000112 | solubility (mole fraction) (in acetonitrile, 288.15 K): 0.00012 | solubility (mole fraction) (in acetonitrile, 293.15 K): 0.000145 | solubility (mole fraction) (in acetonitrile, 298.15 K): 0.000149 | solubility (mole fraction) (in acetonitrile, 303.15 K): 0.000209 | solubility (mole fraction) (in acetonitrile, 308.15 K): 0.000253 | solubility (mole fraction) (in acetonitrile, 313.15 K): 0.000309 | solubility (mole fraction) (in acetonitrile, 318.15 K): 0.000339 | solubility (mole fraction) (in acetonitrile, 323.15 K): 0.000403 | solubility (mole fraction) (in ethanol, 283.15 K): 0.00128 | solubility (mole fraction) (in ethanol, 288.15 K): 0.0014 | solubility (mole fraction) (in ethanol, 293.15 K): 0.00153 | solubility (mole fraction) (in ethanol, 298.15 K): 0.00163 | solubility (mole fraction) (in ethanol, 303.15 K): 0.00192 | solubility (mole fraction) (in ethanol, 308.15 K): 0.00213 | solubility (mole fraction) (in ethanol, 313.15 K): 0.00234 | solubility (mole fraction) (in ethanol, 318.15 K): 0.00274 | solubility (mole fraction) (in ethanol, 323.15 K): 0.00295 | solubility (mole fraction) (in ethyl acetate, 283.15 K): 0.000435 | solubility (mole fraction) (in ethyl acetate, 288.15 K): 0.000523 | solubility (mole fraction) (in ethyl acetate, 293.15 K): 0.000638 | solubility (mole fraction) (in ethyl acetate, 298.15 K): 0.000704 | solubility (mole fraction) (in ethyl acetate, 303.15 K): 0.000825 | solubility (mole fraction) (in ethyl acetate, 308.15 K): 0.000956 | solubility (mole fraction) (in ethyl acetate, 313.15 K): 0.00109 | solubility (mole fraction) (in ethyl acetate, 318.15 K): 0.00116 | solubility (mole fraction) (in ethyl acetate, 323.15 K): 0.00127 | solubility (mole fraction) (in isobutanol, 283.15 K): 0.000905 | solubility (mole fraction) (in isobutanol, 288.15 K): 0.00104 | solubility (mole fraction) (in isobutanol, 293.15 K): 0.00123 | solubility (mole fraction) (in isobutanol, 298.15 K): 0.00144 | solubility (mole fraction) (in isobutanol, 303.15 K): 0.00176 | solubility (mole fraction) (in isobutanol, 308.15 K): 0.00202 | solubility (mole fraction) (in isobutanol, 313.15 K): 0.0023 | solubility (mole fraction) (in isobutanol, 318.15 K): 0.00258 | solubility (mole fraction) (in isobutanol, 323.15 K): 0.00294 | solubility (mole fraction) (in isopropanol, 283.15 K): 0.000699 | solubility (mole fraction) (in isopropanol, 288.15 K): 0.000762 | solubility (mole fraction) (in isopropanol, 293.15 K): 0.00089 | solubility (mole fraction) (in isopropanol, 298.15 K): 0.000954 | solubility (mole fraction) (in isopropanol, 303.15 K): 0.00118 | solubility (mole fraction) (in isopropanol, 308.15 K): 0.00136 | solubility (mole fraction) (in isopropanol, 313.15 K): 0.0016 | solubility (mole fraction) (in isopropanol, 318.15 K): 0.00182 | solubility (mole fraction) (in isopropanol, 323.15 K): 0.00198 | solubility (mole fraction) (in methanol, 283.15 K): 0.00133 | solubility (mole fraction) (in methanol, 288.15 K): 0.00142 | solubility (mole fraction) (in methanol, 293.15 K): 0.00158 | solubility (mole fraction) (in methanol, 298.15 K): 0.00167 | solubility (mole fraction) (in methanol, 303.15 K): 0.00211 | solubility (mole fraction) (in methanol, 308.15 K): 0.00219 | solubility (mole fraction) (in methanol, 313.15 K): 0.00244 | solubility (mole fraction) (in methanol, 318.15 K): 0.00279 | solubility (mole fraction) (in methanol, 323.15 K): 0.00301 | solubility (mole fraction) (in methyl acetate, 283.15 K): 0.000378 | solubility (mole fraction) (in methyl acetate, 288.15 K): 0.000515 | solubility (mole fraction) (in methyl acetate, 293.15 K): 0.000608 | solubility (mole fraction) (in methyl acetate, 298.15 K): 0.000636 | solubility (mole fraction) (in methyl acetate, 303.15 K): 0.000758 | solubility (mole fraction) (in methyl acetate, 308.15 K): 0.000822 | solubility (mole fraction) (in methyl acetate, 313.15 K): 0.000899 | solubility (mole fraction) (in methyl acetate, 318.15 K): 0.000953 | solubility (mole fraction) (in methyl acetate, 323.15 K): 0.00117 | solubility (mole fraction) (in n-butanol, 283.15 K): 0.0016 | solubility (mole fraction) (in n-butanol, 288.15 K): 0.0018 | solubility (mole fraction) (in n-butanol, 293.15 K): 0.00193 | solubility (mole fraction) (in n-butanol, 298.15 K): 0.0022 | solubility (mole fraction) (in n-butanol, 303.15 K): 0.00266 | solubility (mole fraction) (in n-butanol, 308.15 K): 0.0029 | solubility (mole fraction) (in n-butanol, 313.15 K): 0.00337 | solubility (mole fraction) (in n-butanol, 318.15 K): 0.00371 | solubility (mole fraction) (in n-butanol, 323.15 K): 0.00416 | solubility (mole fraction) (in n-butyl acetate, 283.15 K): 0.000445 | solubility (mole fraction) (in n-butyl acetate, 288.15 K): 0.000544 | solubility (mole fraction) (in n-butyl acetate, 293.15 K): 0.000646 | solubility (mole fraction) (in n-butyl acetate, 298.15 K): 0.000724 | solubility (mole fraction) (in n-butyl acetate, 303.15 K): 0.000881 | solubility (mole fraction) (in n-butyl acetate, 308.15 K): 0.00098 | solubility (mole fraction) (in n-butyl acetate, 313.15 K): 0.00114 | solubility (mole fraction) (in n-butyl acetate, 318.15 K): 0.00122 | solubility (mole fraction) (in n-butyl acetate, 323.15 K): 0.00136 | solubility (mole fraction) (in n-propanol, 283.15 K): 0.00137 | solubility (mole fraction) (in n-propanol, 288.15 K): 0.00148 | solubility (mole fraction) (in n-propanol, 293.15 K): 0.00173 | solubility (mole fraction) (in n-propanol, 298.15 K): 0.00181 | solubility (mole fraction) (in n-propanol, 303.15 K): 0.00217 | solubility (mole fraction) (in n-propanol, 308.15 K): 0.00246 | solubility (mole fraction) (in n-propanol, 313.15 K): 0.00274 | solubility (mole fraction) (in n-propanol, 318.15 K): 0.00303 | solubility (mole fraction) (in n-propanol, 323.15 K): 0.00347
